This is an account of results in a melting point compilation (Tetko et al.; mined from patent text by program, amines drawn as free bases though some values may be those of a salt).

Structures are written as SMILES.

In general, melting point refers to the temperature of the solid-liquid transition. As for `CC(=O)OC1CSC(Oc2cnccc2C#N)C(OC(C)=O)C1OC(C)=O` (stereo not drawn), the melting point came out at 167 °C.
Next, `O=C(NCC(=O)N1c2ccccc2N(Cc2ccccc2)C(=O)[C@H]2CCC[C@H]21)c1ccco1` (relative stereo): 169 to 170 °C; `Cc1cc(SC2CC(=O)N(c3ccccc3)C2=O)cc(C(C)(C)C)c1N` (stereo not drawn): 126 to 128 °C; `O=[N+]([O-])c1cc(F)ccc1Sc1ccccc1`: 66 to 67 °C.
In the case of `c1ccc(-c2cnc(-c3ccccc3)s2)cc1` it was 102 to 105 °C.
In the case of `CCCCN(CCCC)CCCNS(=O)(=O)c1ccc2c(c1)C(=O)c1cc(S(=O)(=O)NCCCN(CCCC)CCCC)ccc1C2=O` it was 93 to 95 °C; in that of `COC(=O)c1nc(N(C)C(C)=O)ccc1Oc1nc(OC)cc(OC)n1`, 119 to 121 °C.
With `CCOC(=O)Cc1ccc(C(=O)CN2CCN(c3ccncc3)CC2)cc1`, the melting point was 122 to 124 °C.
Next, `O=C1c2cc3nnn(CCCc4cccc(F)c4)c(=O)c3cc2OC2CCCN12` (stereo not drawn): 145 to 148 °C; `COc1ccc2c(Br)c(C)sc2c1`: 80 to 81 °C; `Cc1cccc(NC(=O)NCC(=O)N(c2ccccc2)C(C)C(=O)N(C)c2ccccc2)c1` (racemic): 214 °C.
In the case of `COc1cc2c(cc1OC)C(C(C#N)SCCO)=NCC2` (stereo not drawn) it was 138 to 140 °C; in that of `O=C(Cl)[C@@H]1CCCN1S(=O)(=O)c1ccc2ccccc2c1`, 107 to 109 °C; in that of `CCCc1c(OCCCOc2ccc(N)cc2)ccc2c1OC(CCC(=O)OCC)(CCC(=O)OCC)CC2=O`, 126 to 127 °C.
The compound `COc1cc(OC)c2c(=O)[nH]c(-c3cc(C)c(OCCN4C(=O)CN(C(C)C)C4=O)c(C)c3)nc2c1` gave a melting point of 219 to 221 °C.
In the case of `Cc1ccc(-c2ncc(N(C)CCCCOCC(=O)O)nc2-c2ccc(C)cc2)cc1` it was 161 to 162 °C.
Next, `COCCn1cc2c(C3C(=O)Nc4ccc(Br)cc43)nc(NCCN3CCOCC3)nc2n1` (stereo not drawn): greater than 300 °C.
Next, `Cc1cc(CCCCNc2nc(CO)nn2C)sc1C=O`: 118 to 121 °C; `COc1ccccc1N1CCN(CCCNC(=O)c2cc(N)cc3c(=O)c(C)c(-c4ccccc4)oc23)CC1`: 218 to 219 °C; `Cc1cccc(C)c1-c1cc(Cl)cc2c1OC(CN1CCCCC1)C2` (stereo not drawn): greater than 235 °C.
Compound `COC(C)Cn1c(C)nc2c(N)nc3ccccc3c21` (stereo not drawn) displayed a melting point of 196 to 197 °C.
In the case of `O=S(=O)(Nc1ccc2c(OCc3csc(-c4ccc(OC(F)(F)F)cc4)n3)cccc2c1)C(F)(F)F` it was 131 to 132 °C; in that of `O=C1C(=O)c2ccccc2C2=C1SCC1(CCN(Cc3ccc(-c4cn[nH]c4)cc3)CC1)O2`, 190 to 192 °C.
In the case of `C/C=C/c1cc(OC)c2oc(-c3ccc(O)c(OC)c3)c(C)c2c1` it was 132 to 133 °C; in that of `Cc1ccc2oc(=O)c(C(=O)O)c(-c3ccccc3)c2c1`, 129 to 131 °C; in that of `O=P1(c2ccc(Oc3ccccc3)cc2)c2ccccc2CN1c1ccccc1` (stereo not drawn), 207 to 208 °C.
`C#CCOc1cc(Oc2cccc(Cl)c2Cl)ncn1` displayed a melting point of 91.9 °C.
`CCCC(C)(c1ccc(F)cc1)c1cc(O)c2c3c(c(=O)oc2c1)CCC3` (stereo not drawn) returned a melting point of 133 to 135 °C.
Compound `CCNC(=O)C1CCN(C(=O)c2cc(-c3ccccc3)c(=O)n3c2-c2sccc2CC3)CC1` gave a melting point of 134 to 135 °C.
The compound `Cc1cc(-c2nc3cc4c(cc3[nH]2)C(C)(C)CC(=O)N4)[nH]n1` had a melting point of 242 to 245 °C.
As for `CCCCC1OC(=O)c2cc(NC(C)C)ccc21` (stereo not drawn), the melting point was in the range of 72 to 74 °C.
Turning to `O=C(O)C1(CSCc2ccccc2)Cc2ccccc2O1` (stereo not drawn), the melting point fell in the range of 125 to 127 °C.
In the case of `COc1cc(C(O)c2c(O)c(=O)ccn2CCO)ccc1O` (stereo not drawn) it was 179 to 190 °C; in that of `COc1cccc(C(O)(Cc2ccncc2)c2cccc(OC)c2)c1`, 134 to 135 °C; in that of `COC(=O)c1ccc(CC(C)NCC(O)c2ccc(O)c(C)c2)cc1` (stereo not drawn), 103 to 107 °C.
In the case of `CCCn1c(=O)c2[nH]c(/C=C/c3cccc(Cl)c3)nc2n(CCC)c1=O` it was 259 °C; in that of `COc1cc(OC)cc(-c2cc(=O)c3ccc(OCC(O)CNC(C)(C)C)cc3o2)c1` (stereo not drawn), 145 to 146 °C; in that of `CC(C)(O)Cn1c(CON2C(=O)c3ccccc3C2=O)nc2c(N)nc3ccccc3c21`, 270 to 272 °C.
In the case of `CN1C=C(S(=O)(=O)C(F)(F)F)C(Cl)(c2ccc(Cl)cc2)C1` (stereo not drawn) it was 117 to 119 °C; in that of `COc1cccc(/C=C/C(=O)/C=C/C(=O)O)c1`, 158 to 160 °C; in that of `Cc1cc(-c2nc3cccnn3c2-c2ccnc(NC(=O)NCC(F)(F)F)c2)ccc1F`, 229 to 230 °C.
As to `CNc1cn(-c2cncc(F)c2)nc1C1CC1`, the melting point was in the range of 118 to 120 °C.
For the compound `C[C@H](NS(=O)(=O)c1ccc2c(Cl)cnc(Cl)c2c1)C(=O)OC(C)(C)C`, the melting point lay within 115 to 119 °C.
In the case of `CN(c1cccc(C(F)(F)F)c1)c1nc2c(-c3cccc(C(=O)O)c3)cccc2n1C` it was 211 to 212 °C; in that of `CCCCCC(=O)n1c(=O)n(-c2ccc(OC)cc2)c(=O)n1C(=O)CCCCC`, 88 to 90 °C.
In the case of `Cc1[nH]c(=O)c(-c2csc(-c3ccnc(NCC4CC4)c3)n2)cc1C(=O)NCC1CC1` it was greater than 260 °C; in that of `FC(F)(F)c1cc(C(F)(F)F)n2nc(SCc3ccccc3)nc2n1`, 78.5 to 80.5 °C.
With `CC(C)(C)c1ccc2oc(-c3ccc(C=Cc4ccc(-n5ncc(-c6ccccc6)n5)cc4)cc3)nc2c1`, the melting point lay in the range of 230 to 231 °C.
Next, `CSC1C(=O)Nc2c(Oc3c(Cl)cccc3Cl)cccc21` (stereo not drawn): greater than 230 °C.
In the case of `O=C(Cc1ccc(OCc2ccccc2C(=O)O)cc1)NC1(C(=O)O)Cc2ccc(-c3ccc(Cl)cc3)cc2C1` (stereo not drawn) it was 209 to 211 °C.
For the compound `CC(=O)c1ccc(CNC(=O)OC(C)(C)C)cc1`, the melting point was 73 to 75 °C.
In the case of `CCOc1ccc(OCC(N)=O)c(C(Nc2ccc(C(=N)N)cc2)C(=O)O)c1` (racemic) it was 266 °C; in that of `N#Cc1nn(-c2c(Cl)cc(C(F)(F)F)cc2Cl)c(N)c1-c1ccc(Br)s1`, 214 °C.
Turning to `COC1(c2ccc(Sc3ccc4c(ccc(=O)n4C)c3)s2)CCOCC1`, the melting point is 119 to 120 °C.
Take `CC(=O)NC[C@@H]1C[C@H]1c1cccc2nn(C)c(F)c12` (relative stereo): the melting point fell in the range of 109 to 111 °C.
In the case of `O=C(Nc1ccc(-n2nc(C(F)(F)F)cc2C(F)(F)F)cc1)c1cc(F)c(F)c(F)c1`, the melting point was in the range of 158 to 159 °C.
In the case of `Cc1nc2cnc3ccccc3c2[nH]1` it was 242 to 245 °C; in that of `Cc1cc(CC(=O)O)c(CC(C)N)cc1C` (stereo not drawn), 222 to 223 °C.
In the case of `COc1ccc(-c2ccc(C(C)=NOCCOc3ccc(CC4SC(=O)NC4=O)cc3)cc2)c(OC)c1` (stereo not drawn) it was 186 to 188 °C; in that of `Cc1c([N+](=O)[O-])ccnc1CSc1nc2ccc(C(F)(F)F)cc2[nH]1`, 192 to 193 °C.
Compound `O=c1c2ccc(F)cc2oc2ccc(C(F)(F)F)cc12` displayed a melting point of 140 to 142 °C.
Next, `COc1ccc(Cl)c(Nc2c(C#N)cnc3c2C=C2N=CN=C2C3)c1`: 296 to 298 °C; `COCCCNC(=O)OCCCc1ccc(OCCOC)cc1Oc1ncc(C(F)(F)F)cc1Cl`: 83.5 to 85 °C.
Next, `Cn1c(=O)c(-c2c(Cl)cccc2Cl)cc2cnc(Nc3ccc(CC(=O)O)cc3)nc21`: 286 to 290 °C.
In the case of `COc1ccc(CNc2nc(SC)nc(OC)c2C(=O)O)cc1Cl` it was 167 to 170 °C.
`O=C(O)c1cc(-c2ccc(OCc3ccccc3)cc2)c(=O)n2ccc3ccsc3c12`: the melting point lay within 197 to 199 °C.
In the case of `CC(/C=C/C=C(\C)C1=Cc2cc(C(F)(F)F)ccc2OC1)=C\C(=O)O` it was 245 to 246 °C; in that of `COCCOc1cc(C(F)(F)F)cnc1-c1nc(C)c(-c2ccnc(Nc3ccc(N4CCOCC4)cc3)n2)s1`, 175 to 178 °C.
On to `Cc1[nH]c(C)c(-c2ccc(Oc3ccc(OC(F)(F)F)cc3)cc2)c(=O)c1Br`, for which the melting point was 284 to 286 °C.
In turn, `CCCC1(CC(=O)OCC)OCCc2c1[nH]c1c(C)cc(F)c(Br)c21` (stereo not drawn) gave a melting point of 137 to 138 °C.
Next, `CCCCc1nc(C(=O)C(C)(C)C)c(C#N)n1Cc1ccc(-c2ccccc2-c2nnnn2C(c2ccccc2)(c2ccccc2)c2ccccc2)cc1`: 103 to 105 °C; `Cc1nc(OC(C)C(=O)NC(C)(C#N)C(C)(C)C)c(Cl)c(C(F)(F)F)n1` (stereo not drawn): 137 to 139 °C; `CC(=O)Nc1nc2c(s1)-c1nn(C(=O)c3ccccc3)cc1CC2`: 266 to 267 °C.
In the case of `Cc1cc(C)c(C(O)c2cc(-n3ccnc3)ccc2C)c(C)c1` (stereo not drawn) it was 190 to 191 °C; in that of `CCCNC(=O)C(C)=Cc1ccc2c(c1)c(Cc1ccc(C(=O)O)cc1OC)cn2CC(=O)N(C)C`, 232 to 235 °C.
In turn, `CCCCCCn1c(=O)n(C2OC(CO)C(O)C2O)c2nc(N)[nH]c(=O)c21` (stereo not drawn) came in with a melting point of 196 to 199 °C.
Next, `CN1CC2CC(=O)NC3C=CC=C4Cc5ccccc5C(C1)C2N43` (stereo not drawn): 165 to 168 °C; `COc1cc(OC)nc(Oc2cccc(Cl)c2C(=O)NS(=O)(=O)C(C)C)n1`: 150 to 152 °C.
In the case of `O=C(O)CCc1cc(OCCCc2cn(-c3ccc(C(F)(F)F)cn3)nc2-c2ccccc2)nn1-c1ccccc1` it was 175 to 176 °C; in that of `C=CCN1C(=O)CSC1=NOC(=O)NC`, 108 to 110 °C.
In the case of `CC(=O)N1CCN(c2ccc(Nc3nccc(-c4sc(-c5cccs5)nc4C)n3)cc2)CC1` it was 134 to 136 °C; in that of `COc1ccc2c(c1)C(CCNC(=O)C(F)(F)F)=C(Cc1ccccc1)C2`, 126 to 128 °C; in that of `CC(C)C(=O)NC(c1ccc(C=O)cc1)C(F)(F)F` (stereo not drawn), 132 to 133 °C.
